The target of one experiment is human DGKα (Homo sapiens (Human), UniProt P23743). As to the kind of experiment: DGKα Biochemical Activity Assay (ADP-Glo). The settings on record: recombinant DGKα 1 nM, 100 μM ATP, 18:1 DAG/POPS/octylglucoside micelles, 1 hour at 25° C.; geometric mean; read-out: HTBS DGKa 1X ATP KM IC50. In outline:
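Recombinant DGKα (1 nM final) was preincubated with compound for 15 min, then reacted for 1 h at 25 °C with 100 μM ATP and octylglucoside micelles of 0.85 mM 18:1 DAG and 6.75 mM POPS in pH 7.2 MOPS with 5 mM MgCl2. ADP formed was read by ADP-Glo luminescence. IC50 came from four-parameter fits normalized to DMSO and 50 μM CU3, and values were geometric means.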
(ADP-Glo turns the ADP formed in a reaction into a luminescent signal.)

The test system of experiment [1] is Jurkat NFκB-luciferase cells. Description: Jurkat NFκB-Luciferase Assay. It counts as cell-based. To be noted: Homo sapiens; Jurkat NFκB-luciferase cells activated with anti-CD3 antibody (OKT3), 2.5 hrs at 37° C.; geometric mean; read-out: DGK NFKb Luciferase EC50. In outline: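 Jurkat NFκB-luciferase reporter cells stimulated on plate-bound anti-CD3 (5 ug/ml coating) with compound, 2.5 hrs at 37° C then 30 min at 25° C; luminescence read with One-Glo Ex. Normalized to DMSO (basal) and 1 micromolar compound (maximum) controls; EC50 from four-parameter fit, geometric mean across experiments.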

human DGKα, sequence (P23743 whole entry): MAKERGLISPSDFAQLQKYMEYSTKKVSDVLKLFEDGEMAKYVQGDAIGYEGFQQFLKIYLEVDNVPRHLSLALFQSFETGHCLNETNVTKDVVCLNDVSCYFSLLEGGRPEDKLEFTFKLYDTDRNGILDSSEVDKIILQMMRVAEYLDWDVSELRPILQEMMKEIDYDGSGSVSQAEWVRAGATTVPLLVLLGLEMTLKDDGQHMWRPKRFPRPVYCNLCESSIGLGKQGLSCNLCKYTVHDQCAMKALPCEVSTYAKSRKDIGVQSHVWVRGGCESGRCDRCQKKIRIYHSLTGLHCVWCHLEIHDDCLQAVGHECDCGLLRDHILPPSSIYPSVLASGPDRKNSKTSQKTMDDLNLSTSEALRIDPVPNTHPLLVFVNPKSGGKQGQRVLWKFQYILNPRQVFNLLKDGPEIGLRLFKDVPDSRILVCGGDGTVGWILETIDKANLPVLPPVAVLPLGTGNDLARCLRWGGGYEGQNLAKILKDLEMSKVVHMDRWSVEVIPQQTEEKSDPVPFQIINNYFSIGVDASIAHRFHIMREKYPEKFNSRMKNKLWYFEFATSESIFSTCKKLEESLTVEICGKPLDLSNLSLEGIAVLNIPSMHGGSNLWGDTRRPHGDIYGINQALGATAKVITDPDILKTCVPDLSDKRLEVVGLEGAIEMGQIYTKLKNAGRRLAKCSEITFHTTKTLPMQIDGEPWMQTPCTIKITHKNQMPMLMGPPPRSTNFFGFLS

Turning to `Fc1cnc2c(c1)c(N1CCCc3c(C#CC4(C(F)(F)F)CC4)cccc31)nc1nncn12` [Example 150, 11-fluoro-8-[5-[2-[1-(trifluoromethyl)cyclopropyl]ethynyl]-3,4-dihydro-2H-quinolin-1-yl]-2,4,5,7,13-pentazatricyclo[7.4.0.02,6]trideca-1(13),3,5,7,9,11-hexaene], the IC50 (as a rule, the concentration that inhibits the measured activity by half) at human DGKα was found to be 8.44 nM. Besides, the EC50 (as a rule, the concentration giving half of the maximal effect) in experiment [1] came out at 2.18 nM.
As to `Cc1nnc2nc(N3CCOCc4c(Br)cccc43)c3c(F)cncc3n12` [Example 81, 6-bromo-1-(6-fluoro-1-methylpyrido[4,3-e][1,2,4]triazolo[4,3-a]pyrimidin-5-yl)-1,2,3,5-tetrahydrobenzo[e][1,4]oxazepine], the IC50 at human DGKα worked out at 151 nM. Moreover, the EC50 in experiment [1] was found to be 46.7 nM.
In the same order, the values of `Cc1nnc2nc(N3CCCc4c(C#CC5(C(F)(F)F)CC5)cccc43)c3cc(F)cnc3n12` [Example 101, 3-fluoro-9-methyl-5-(5-((1-(trifluoromethyl)cyclopropyl)ethynyl)-3,4-dihydroquinolin-1(2H)-yl)pyrido[3,2-e][1,2,4]triazolo[4,3-a]pyrimidine] are 6.21 nM and 1.01 nM.
Take `CN(c1cccc(Br)c1)c1nc2nnnn2c2cc(Cl)ccc12` [Example 11, N-(3-bromophenyl)-8-chloro-N-methyltetrazolo[1,5-a]quinazolin-5-amine]: at human DGKα, the IC50 was determined as 430 nM. Moreover, the EC50 in experiment [1] amounted to 36.4 nM.
On to `CN(c1cc(F)cc(C#CC(C)(C)C)c1)c1nc2nnnn2c2ccc(F)cc12` [Example 15], for which the IC50 on human DGKα came out at 42.9 nM. Besides, the EC50 in experiment [1] was found to be 1.79 nM.
The matching figures for `Cc1nnc2nc(N3CCOCc4c(C#CC5CN(C)CCO5)cccc43)c3c(F)cncc3n12` (stereo not shown) [Example 56, 1-(10-fluoro-3-methyl-2,4,5,7,12-pentazatricyclo[7.4.0.02,6]trideca-1(13),3,5,7,9,11-hexaen-8-yl)-6-[2-(4-methylmorpholin-2-yl)ethynyl]-3,5-dihydro-2H-4,1-benzoxazepine]: 18.6 nM and 109 nM.
In the case of `Cc1nnc2nc(N3CCCCc4c(C#CC5(C(C)(F)F)CC5)cccc43)c3c(F)cncc3n12` [Example 65, 5-(6-((1-(1,1-difluoroethyl)cyclopropyl)ethynyl)-2,3,4,5-tetrahydro-1H-benzo[b]azepin-1-yl)-6-fluoro-1-methylpyrido[4,3-e][1,2,4]triazolo[4,3-a]pyrimidine], the IC50 at human DGKα stood at 22.7 nM. Moreover, the EC50 in experiment [1] came out at 0.337 nM.
Consider `Cc1nnc2nc(N3CCCCc4c(C#CC(C)(C)O)cccc43)c3c(F)cncc3n12` [Example 66, 4-(1-(6-fluoro-1-methylpyrido[4,3-e][1,2,4]triazolo[4,3-a]pyrimidin-5-yl)-2,3,4,5-tetrahydro-1H-benzo[b]azepin-6-yl)-2-methylbut-3-yn-2-ol], for which the IC50 on human DGKα worked out at 6.14 nM. The EC50 in experiment [1] is 15.9 nM.
In the same order, the values of `Cc1nnc2nc(N3CCCc4c3ccnc4C#CC3(C(C)(F)F)CC3)c3c(F)cncc3n12` [Example 29, 5-(5-((1-(1,1-difluoroethyl)cyclopropyl)ethynyl)-3,4-dihydro-1,6-naphthyridin-1(2H)-yl)-6-fluoro-1-methylpyrido[4,3-e][1,2,4]triazolo[4,3-a]pyrimidine] are 37.7 nM and 7.24 nM.
Regarding `Cc1ccc2c(N(C)c3cccc(C#CC(C)(C)C)c3)nc3nncn3c2n1` [Example 122, N-(3-(3,3-dimethylbut-1-yn-1-yl)phenyl)-N,2-dimethylpyrido[3,2-e][1,2,4]triazolo[4,3-a]pyrimidin-5-amine], the IC50 on human DGKα came out at 42.7 nM. Also, the EC50 in experiment [1] was determined as 4.15 nM.
For the molecule `Fc1cncc2c1c(N(CC(F)F)c1ccnc(C#CC3(C(F)(F)F)CC3)c1)nc1nncn12` [Example 55, N-(2,2-difluoroethyl)-6-fluoro-N-(2-((1-(trifluoromethyl)cyclopropyl)ethynyl)pyridin-4-yl)pyrido[4,3-e][1,2,4]triazolo[4,3-a]pyrimidin-5-amine], at human DGKα, the IC50 was 23.3 nM. Moreover, the EC50 in experiment [1] is 28.1 nM.

Values taken from patent US11926628B2 (Gilead Sciences, Inc., priority 2021, dated 2024).
